Measurements as given in article PMC9604311 (International Journal of Molecular Sciences, 2022).
“Also recorded” adds a separate entry of the source. Positions of bridges follow the written chain, without caps; N, C: chain ends. Non-standard residues stand in square brackets, D forms with d. Residues, ends and D or L forms follow the SMILES beside them. No end group written: not given here.

T1: RP-170 (lactam 2-5)
T1 chain: Y[dK]FFD-NH2

T2: KW-496 (lactam 2-5)
T2 chain: Y[dK]FFDGGGRYYRIK-NH2

T3: KW-495 (lactam 2-5)
T3 chain: Y[dK]FFDRYYRIK-NH2


What was measured:
human KOP = molecular target: T4, human KOP (Homo sapiens, UniProt P41145); assay: cell-based; settings: for KOP α ± SEM: efficacy (intrinsic activity) relative to dynorphin A; for KOP α ± SEM / KOP pEC50 (CL95%): inactive = inactive up to 1 μM; for KOP pEC50 (CL95%): agonist potency, calcium mobilization
T4 construct: expressed in transfected cells; host or cells: CHO cells

human MOP [1] = molecular target: T5, human MOP (Homo sapiens, UniProt P35372); assay: [3H]DAMGO displacement binding assay; design: purchased PerkinElmer; host or cells: CHO cells
Protocol: (§1) Membranes were incubated in 0.5 mL of 50 mM Tris/HCl (pH = 7.4), 0.5% bovine serum albumin (BSA), with a number of peptidase inhibitors (bacitracin, bestatin, captopril) and various concentrations of radioligands for 2 h at 25 °C. Non-specific binding was assessed in the presence of […] naloxone. Assays were incubated at room temperature for […] and reactions were terminated via filtration through Whatman GF/B filters, soaked in 0.5% polyethyleneimine (PEI), using Millipore Sampling Manifold (Billerica, MA, USA). Radioactivity was determined after an 8 h extraction period.
(§2) The IC50 values were determined from the logarithmic concentration–displacement curves, and the values of the inhibitory constants (Ki) were calculated according to the equation of Cheng and Prusoff.

human DOP [2] = molecular target: T6, human DOP (Homo sapiens, UniProt P41143); assay: [3H]deltorphin-2 displacement binding assay; design: purchased PerkinElmer; host or cells: CHO cells; settings: for pKi DOP: displacement of [3H]deltorphin-2 from CHOhDOP cell homogenates, mean ± SEM, n = 5
Protocol: as §1, §2

human DOP [3] = molecular target: T6, human DOP; assay type: cell-based; design: expressed in transfected cells; host or cells: CHO cells; settings: inactive = inactive up to 1 μM; for DOP pEC50 (CL95%): agonist potency, calcium mobilization; for DOP α ± SEM: efficacy (intrinsic activity) relative to DPDPE
human NOP = human NOP (Homo sapiens, UniProt P41146); assay: calcium mobilization assay, CHO cells co-expressing NOP and Gαqi5; settings: for NOP pEC50 (CL95%): agonist potency, calcium mobilization, inactive = inactive up to 1 μM
human MOP [4] = molecular target: T5, human MOP; settings: agonist potency, calcium mobilization; inactive = inactive up to 1 μM
[5] = molecular target: T7, human nociceptin/orphanin FQ peptide receptor (NOP) (Homo sapiens, UniProt P41146); assay: [leucyl-3H]nociceptin displacement binding assay
T7 construct: expressed in transfected cells; host or cells: CHO cells (CHOhNOP; gift from GSK), membrane homogenate
Protocol: Radioactivity was determined after an 8 h extraction period.
as §2

mice [6] = assay: rotarod test (motor coordination); assay type: in vivo; settings: 6.2 nmol/animal, i.t.; compared to control group
Protocol: Rotarod apparatus (Ugo Basile, No. 8466, Italy) was used to estimate the probable influence of peptide on motor coordination of animals. In the training period, 3 trials were conducted for 3 consecutive days. Animals that were able to stay on the rotating (16 revolutions/min) bar more than 180 s were chosen for the tests. In the experimental session, each animal was tested on the rotarod, and duration to fall from the rotating bar was noted.

human MOP [7] = molecular target: T5, human MOP; assay: cell-based
mice [8] = assay: mouse hot-plate test (antinociception); settings: i.t. administration, value with range in parentheses
RP-170 = molecular target: T1, RP-170; assay: radioligand competition ([3H]deltorphin-2)
KW-496 = molecular target: T2, KW-496; assay: radioligand competition ([3H]deltorphin-2)
KW-495 = molecular target: T3, KW-495; assay: radioligand competition ([3H]deltorphin-2)

T4 sequence (P41145 whole entry): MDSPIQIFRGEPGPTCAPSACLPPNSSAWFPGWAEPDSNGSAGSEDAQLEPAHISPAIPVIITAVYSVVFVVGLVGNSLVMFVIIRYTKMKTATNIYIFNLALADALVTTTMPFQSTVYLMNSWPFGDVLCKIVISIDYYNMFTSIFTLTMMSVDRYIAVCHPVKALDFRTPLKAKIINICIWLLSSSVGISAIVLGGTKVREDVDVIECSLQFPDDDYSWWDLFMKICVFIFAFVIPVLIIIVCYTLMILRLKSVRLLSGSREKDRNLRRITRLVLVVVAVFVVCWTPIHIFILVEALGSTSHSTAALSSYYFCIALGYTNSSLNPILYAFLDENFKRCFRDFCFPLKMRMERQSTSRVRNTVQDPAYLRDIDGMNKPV
T5 sequence (P35372 whole entry): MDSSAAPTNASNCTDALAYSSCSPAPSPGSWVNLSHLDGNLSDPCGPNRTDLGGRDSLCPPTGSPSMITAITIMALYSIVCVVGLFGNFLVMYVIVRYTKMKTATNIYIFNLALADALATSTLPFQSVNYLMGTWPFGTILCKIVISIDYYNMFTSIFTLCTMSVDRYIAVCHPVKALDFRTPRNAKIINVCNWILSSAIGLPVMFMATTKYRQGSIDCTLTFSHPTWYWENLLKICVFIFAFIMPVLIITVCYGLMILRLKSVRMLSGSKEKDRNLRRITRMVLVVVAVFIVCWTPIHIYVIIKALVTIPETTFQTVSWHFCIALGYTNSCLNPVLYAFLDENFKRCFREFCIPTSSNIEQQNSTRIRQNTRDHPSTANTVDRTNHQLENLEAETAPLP
Chain of human NOP (P41146 whole entry): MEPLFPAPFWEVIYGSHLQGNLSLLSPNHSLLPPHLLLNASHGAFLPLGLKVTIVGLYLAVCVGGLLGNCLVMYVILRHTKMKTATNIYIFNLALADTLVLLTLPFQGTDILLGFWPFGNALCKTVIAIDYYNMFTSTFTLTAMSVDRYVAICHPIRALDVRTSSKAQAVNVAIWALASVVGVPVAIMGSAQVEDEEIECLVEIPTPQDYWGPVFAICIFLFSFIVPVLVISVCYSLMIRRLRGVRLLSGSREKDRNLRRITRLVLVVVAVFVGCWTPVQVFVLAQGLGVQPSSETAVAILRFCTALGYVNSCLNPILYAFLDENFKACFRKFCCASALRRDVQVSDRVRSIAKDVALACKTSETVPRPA
T7 sequence (P41146 whole entry): as above

| Molecule | KOP α ± SEM (human KOP) | Ki (human MOP [1]) [nM] | Ki (human DOP [2]) [nM] | DOP pEC50 (CL95%) (human DOP [3]) | DOP α ± SEM (human DOP [3]) | NOP pEC50 (CL95%) (human NOP) | further results |
| --- | --- | --- | --- | --- | --- | --- | --- |
| NC(=O)[C@@H]1CC(=O)NCCCC[C@@H](NC(=O)[C@@H](N)Cc2ccc(O)cc2)C(=O)N[C@@H](Cc2ccccc2)C(=O)N[C@@H](Cc2ccccc2)C(=O)N1 [RP-170, Tyr-c[D-Lys-Phe-Phe-Asp]-NH2, reference compound] (HELM PEPTIDE1{Y.[dK].F.F.D.[am]}$PEPTIDE1,PEPTIDE1,2:R3-5:R3$$$V2.0; N-terminus assumed) | 1.00 ± 0.03 | 0.617 | 295 | inactive | inactive | completely inactive |  |
| CC1(C)SSC(C)(C)[C@@H](NC(=O)[C@@H](N)Cc2ccc(O)cc2)C(=O)NCC(=O)N[C@@H](Cc2ccccc2)C(=O)N[C@H]1C(=O)O [DPDPE] | inactive |  |  |  |  | inactive | KOP pEC50 (CL95%) (human KOP): inactive |
| CC(C)C[C@H](NC(=O)[C@H](CCCCN)NC(=O)[C@H](CCCNC(=N)N)NC(=O)[C@H](C)NC(=O)[C@H](CO)NC(=O)[C@H](CCCCN)NC(=O)[C@H](CCCNC(=N)N)NC(=O)[C@H](C)NC(=O)CNC(=O)[C@@H](NC(=O)[C@H](Cc1ccccc1)NC(=O)CNC(=O)CNC(=O)[C@@H](N)Cc1ccccc1)[C@@H](C)O)C(=O)N[C@@H](C)C(=O)N[C@@H](CC(N)=O)C(=O)N[C@@H](CCC(N)=O)C(=O)O [N/OFQ] |  |  |  |  |  |  | MOP pEC50 (CL95%) (human MOP [4]): inactive |
| CC[C@H](C)[C@H](NC(=O)[C@H](CCCNC(=N)N)NC(=O)[C@H](Cc1ccc(O)cc1)NC(=O)[C@H](Cc1ccc(O)cc1)NC(=O)[C@H](CCCNC(=N)N)NC(=O)[C@@H]1CC(=O)NCCCC[C@@H](NC(=O)[C@@H](N)Cc2ccc(O)cc2)C(=O)N[C@@H](Cc2ccccc2)C(=O)N[C@@H](Cc2ccccc2)C(=O)N1)C(=O)N[C@@H](CCCCN)C(N)=O [KW-495, Tyr-c[D-Lys-Phe-Phe-Asp]-Arg-Tyr-Tyr-Arg-Ile-Lys-NH2] (HELM PEPTIDE1{Y.[dK].F.F.D.R.Y.Y.R.I.K.[am]}$PEPTIDE1,PEPTIDE1,2:R3-5:R3$$$V2.0; N-terminus assumed) |  | 4.47 | > 1000 | inactive | inactive |  | Ki [5]: 2.24 nM; EC50 (human KOP): 2.82 nM; effect on motor coordination (falling latency) (mice [6]): did not cause any significant effect; EC50 (human MOP [7]): 8.71 nM; ED50 (jumping response) (mice [8]): 4.59 (1.17–18.09) nmol; pKi DOP (human DOP [2]): did not bind to DOP; EC50 (human NOP): 75.9 nM |
| CC[C@H](C)[C@H](NC(=O)[C@H](CCCNC(=N)N)NC(=O)[C@H](Cc1ccc(O)cc1)NC(=O)[C@H](Cc1ccc(O)cc1)NC(=O)[C@H](CCCNC(=N)N)NC(=O)CNC(=O)CNC(=O)CNC(=O)[C@@H]1CC(=O)NCCCC[C@@H](NC(=O)[C@@H](N)Cc2ccc(O)cc2)C(=O)N[C@@H](Cc2ccccc2)C(=O)N[C@@H](Cc2ccccc2)C(=O)N1)C(=O)N[C@@H](CCCCN)C(N)=O [KW-496] (HELM PEPTIDE1{Y.[dK].F.F.D.G.G.G.R.Y.Y.R.I.K.[am]}$PEPTIDE1,PEPTIDE1,2:R3-5:R3$$$V2.0) | 1.03 ± 0.02 | 4.68 | > 1000 | inactive | inactive | incomplete concentration–response curve; also recorded: Crc incomplete | Ki [5]: 44.7 nM; EC50 (human KOP): 1.15 nM; EC50 (human MOP [7]): 4.9 nM; pKi DOP (human DOP [2]): did not bind to DOP; NOP α at 1 μM (Crc incomplete) (human NOP; effect at 1 μM relative to N/OFQ, concentration-response curve incomplete): 0.33 ± 0.10 |
| CC[C@H](C)[C@H](NC(=O)[C@H](CCCNC(=N)N)NC(=O)[C@H](Cc1ccc(O)cc1)NC(=O)[C@H](Cc1ccc(O)cc1)NC(=O)[C@H](CCCNC(=N)N)NC(C)=O)C(=O)N[C@@H](CCCCN)C(N)=O [Ac-RYYRIK-NH2, Ac-Arg-Tyr-Tyr-Arg-Ile-Lys-NH2] | inactive |  |  | inactive | inactive |  | KOP pEC50 (CL95%) (human KOP): inactive; MOP pEC50 (CL95%) (human MOP [4]): inactive |
| CC[C@H](C)[C@H](NC(=O)[C@H](CCCNC(=N)N)NC(=O)[C@H](CCCNC(=N)N)NC(=O)[C@H](CC(C)C)NC(=O)[C@H](Cc1ccccc1)NC(=O)CNC(=O)CNC(=O)[C@@H](N)Cc1ccc(O)cc1)C(=O)N[C@@H](CCCNC(=N)N)C(=O)N1CCC[C@H]1C(=O)N[C@@H](CCCCN)C(=O)N[C@@H](CC(C)C)C(=O)N[C@@H](CCCCN)C(=O)N[C@@H](Cc1c[nH]c2ccccc12)C(=O)N[C@@H](CC(=O)O)C(=O)N[C@@H](CC(N)=O)C(=O)N[C@@H](CCC(N)=O)C(=O)O [dynorphin A, reference compound] |  |  |  |  | 1.00 | inactive |  |
| DOP (protein) MEPAPSAGAELQPPLFANASDAYPSACPSAGANASGPPGARSASSLALAIAITALYSAVCAVGLLGNVLVMFGIVRYTKMKTATNIYIFNLALADALATSTLPFQSAKYLMETWPFGELLCKAVLSIDYYNMFTSIFTLTMMSVDRYIAVCHPVKALDFRTPAKAKLINICIWVLASGVGVPIMVMAVTRPRDGAVVCMLQFPSPSWYWDTVTKICVFLFAFVVPILIITVCYGLMLLRLRSVRLLSGSKEKDRSLRRITRMVLVVVGAFVVCWAPIHIFVIVWTLVDIDRRDPLVVAALHLCIALGYANSSLNPVLYAFLDENFKRCFRQLCRKPCGRPDPSSFSRAREATARERVTACTPSDGPGGGAAA |  |  |  |  |  |  | Ki (RP-170): 295 nM; Ki (KW-496): > 1000 nM; Ki (KW-495): > 1000 nM |
